Measured values: patent publication US10208043B2, “Methods for inhibiting fascin” (Novita Pharmaceuticals, Inc., priority 2012, dated 2019)

Assays:
fascin = fascin (Homo sapiens (Human), UniProt Q16658); assay: High throughput fascin inhibition assay (actin bundling, F-actin imaging); assay type: biochemical
Protocol: A high throughput assay was developed to screen for fascin specific inhibitors. Purified polymerized F-actin with or without fascin were mixed and incubated to allow actin bundle formation. F-actin polymers were then bound to the poly-D-lysine coated plates. […] Four images were taken from each well and the average fiber length was analyzed for each tested compound.
Recombinant human fascin 1 was expressed as a GST fusion protein in BL21 Escherichia coli. One liter of 2YT medium with ampicillin was inoculated overnight with 3 mL of BL21/DE3 culture transformed with pGEX4T-fascin 1 plasmid and grown at 37° C. until attenuance at 600 nm (D600) reached about 0.8. The culture was then transferred to 18° C. and induced by the addition of 0.1 mM isopropyl β-d-thiogalactoside (IPTG) for 12 h. Bacteria were harvested by centrifugation at 5,000 r.p.m. for 10 min. The pellets were suspended in 30 mL of PBS supplemented with 0.2 mM PMSF, 1 mM DTT, 1% (v/v) Triton X-100 and 1 mM EDTA. After sonication, the suspension was centrifuged at 15,000 r.p.m. for 30 min to remove the cell debris. The supernatant was then incubated for 2 h with 4 mL of glutathione beads (Sigma) at 4° C. After extensive washing with PBS, the beads were resuspended in 10 mL of thrombin cleavage buffer (20 mM Tris-HCl pH 8.0, 150 mM NaCl, 2 mM CaCl2, 1 mM DTT). Fascin was released from the beads by incubation overnight with 40-100 U of thrombin at 4° C. After centrifugation, 0.2 mM PMSF was added to the supernatant to inactivate the remnant thrombin activity. The fascin protein was further concentrated with a Centricon® (Boca Raton, Fla.) filter to about 50 mg/mL.
About 150,000 compounds were screened. […] Purified fascin protein (15 μL of 0.5 μM) in buffer (100 mM KCl, 20 mM Tris/HCl, pH 7.5, 2 mM MgCl2) was added into each well of a clear 384-well flat-bottom plate (Corning) using Thermo Multidrop Combi (Fisher). Compound ([…]) solutions (5 mM stock) from various chemical libraries were pin transferred from stock 384-well plates into the 384-well assay plates and incubated for 30 min. Then 15 μL of 0.5 μM polymerized actin (in 100 mM KCl, 20 mM Tris/HCl, pH 7.5, 2 mM MgCl2, 1 mM DTT, 1 mM ATP) (Cytoskeleton Inc.) was added, resulting in 30 μM final concentration for chemical compounds. […] Mixed solution (25 μL) was then transferred to one well in a black 384-well plate coated with poly-D-lysine, and stained actin bundles or F-actin would stick onto the poly-D-lysine plates. After the plates were thoroughly washed with 1×PBS for 3 times, the plate was imaged using an ImageXpress Micro High Content Screening System (Molecular devices). The images were processed and analyzed using MetaMorph software. The raw image data for each well was background-corrected by subtraction of the median intensities across all wells on the plate. The background-corrected data was used to compute the bundle length for each well. The negative control wells were employed for quality control: multiple DMSO-only control wells (16 wells/plate) were present on each assay plate.

4T1 breast tumor cells = assay: Boyden-chamber cell migration assay, 4T1; assay type: cell-based
Protocol: Since fascin is critical for tumor cell migration, inhibitors of fascin should block tumor cell migration. Representative compounds were selected from the above-identified fascin inhibitors to test their abilities on inhibition of tumor cell migration (See Table 2). […] The cell lines used are listed below.
Exemplifying procedure: MDA-MB-231 cells (5×10^4) or 4T1 Cells (1×10^5) suspended in 100 μL starvation medium were added to the upper chamber of an insert (6.5 mm diameter, 8 μm pore size; Becton Dickson), and the insert was placed in a 24-well plate containing 700 μL starvation medium with or without 10% FBS. […] Migration assays were performed for 6 h and cells were fixed with 3.7% formaldehyde. Cells were stained with crystal violet staining solution, and cells on the upper side of the insert were removed with a cotton swab. Three randomly selected fields (×10 objectives) on the lower side of the insert were photographed, and the migrated cells were counted. Migration was expressed as average number of migrated cells in a field.

Structure (SMILES) | IC50 (fascin) | IC50 (4T1 breast tumor cells)
Cc1ccc(C(=O)Cn2cnc3c(cnn3C3CCS(=O)(=O)C3)c2=O)c(C)c1 [Compound 28, 5-(2-(2,4-dimethylphenyl)-2-oxoethyl)-1-(S,S-dioxo-tetrahydrothiophen-3-yl)-1H-pyrazolo[3,4-d]pyrimidin-4(5H)-one] | 4.7 µM | 
c1ccc(CNc2nc(-c3ccccc3)[n+](-c3ccccc3)s2)cc1 [Compound 6, N-benzyl-2,3-diphenyl-1,2,4-thiadiazolium-5-amine] | 5 µM | 
O=C(Cn1cnc2c(cnn2C2CCS(=O)(=O)C2)c1=O)c1ccc2c(c1)OCO2 [Compound 29, 5-(2-(benzo[d][1,3]dioxol-5-yl)-2-oxoethyl)-1-(S,S-dioxo-tetrahydrothiophen-3-yl)-1H-pyrazolo[3,4-d]pyrimidin-4(5H)-one] | 3.7 µM | 
O=S(=O)(Nc1nc2ccc(Oc3ccccc3)cc2s1)c1cccc(Cl)c1 [Compound 16, 3-chloro-N-(6-phenoxybenzo[d]thiazol-2-yl)benzenesulfonamide] | ~4 µM | ~7 µM
O=C(/C=C/c1ccccc1)Nc1nc2ccccc2s1 [Compound 20, N-(benzo[d]thiazol-2-yl)cinnamamide] | ~4 µM | ~60 µM
O=S(=O)(Nc1nc2ccc(F)cc2s1)c1cccc(Cl)c1Cl [Compound 18, 2,3-dichloro-N-(6-fluorobenzo[d]thiazol-2-yl)benzenesulfonamide] | ~13 µM | ~3 µM
O=C(Cn1cnc2c(cnn2C2CCS(=O)(=O)C2)c1=O)Nc1ccc(Cl)cc1 [Compound 26, N-(4-chlorophenyl)-2-(4-oxo-1-(S,S-dioxo-tetrahydrothiophen-3-yl)-1H-pyrazolo[3,4-d]pyrimidin-5(4H)-yl)acetamide] | 4.3 µM | 
O=C(Cn1cnc2c(cnn2C2CCS(=O)(=O)C2)c1=O)NCc1ccc2c(c1)OCO2 [Compound 25, N-(benzo[d][1,3]dioxol-5-ylmethyl)-2-(4-oxo-1-(S,S-dioxo-tetrahydrothiophen-3-yl)-1H-pyrazolo[3,4-d]pyrimidin-5(4H)-yl)acetamide] | 4.6 µM | 
O=[N+]([O-])c1cccc(S(=O)(=O)Nc2nc3ccc(F)cc3s2)c1 [Compound 17, N-(6-fluorobenzo[d]thiazol-2-yl)-3-nitrobenzenesulfonamide] | ~4 µM | ~60 µM
O=C(Cn1cnc2c(cnn2C2CCS(=O)(=O)C2)c1=O)c1ccc2c(c1)OCCO2 [Compound 27, 5-(2-(2,3-dihydrobenzo[b][1,4]dioxin-6-yl)-2-oxoethyl)-1-(S,S-dioxo-tetrahydrothiophen-3-yl)-1H-pyrazolo[3,4-d]pyrimidin-4(5H)-one] | ~10 µM | 
O=C(Cn1cnc2c(cnn2C2CCS(=O)(=O)C2)c1=O)Nc1cccc(C(F)(F)F)c1 [Compound 23, 2-(4-oxo-1-(S,S,-dioxo-tetrahydrothiophen-3-yl)-1H-pyrazolo[3,4-d]pyrimidin-5(4H)-yl)-N-(3-(trifluoromethyl)phenyl)acetamide] | 3.4 µM | 
O=C(Cn1cnc2c(cnn2C2CCS(=O)(=O)C2)c1=O)NCc1ccc(F)cc1 [Compound 24, N-(4-fluorobenzyl)-2-(4-oxo-1-(S,S-dioxo-tetrahydrothiophen-3-yl)-1H-pyrazolo[3,4-d]pyrimidin-5(4H)-yl)acetamide] | 4.3 µM | 

Now those with a lower IC50 (fascin), led by results:

IC50 (fascin) | IC50 (4T1 breast tumor cells) | Structure (SMILES)
2 µM |  | O=C(Nc1nn(Cc2ccc(C(F)(F)F)cc2)c2ccccc12)c1ccco1 [Compound 2, N-(1-(4-(trifluoromethyl)benzyl)-1H-indazol-3-yl)furan-2-carboxamide]
2 µM | > 30 µM | O=C1C(Sc2nc[nH]n2)=C/C(=N/S(=O)(=O)c2ccccc2)c2ccccc21 [Compound 13, (Z)-N-(3-(1H-1,2,4-triazol-3-ylthio)-4-oxonaphthalen-1(4H)-ylidene)benzenesulfonamide]
~2 µM | ~25 µM | CC(=O)Nc1nc2ccc(Cl)cc2s1 [Compound 19, N-(6-chlorobenzo[d]thiazol-2-yl)acetamide]
2.62 µM | ~25 µM | O=S(=O)(Nc1cc(Sc2nc[nH]n2)c(O)c2ccccc12)c1ccc(Br)cc1 [Compound 14, N-(3-(1H-1,2,4-triazol-3-ylthio)-4-hydroxynaphthalen-1-yl)-4-bromobenzenesulfonamide]
2.1 µM |  | Cc1ccc(-n2ncc3c(=O)n(Cc4ccc(Cl)c(Cl)c4)cnc32)c(C)c1 [Compound 32, 5-(3,4-dichlorobenzyl)-1-(2,4-dimethylphenyl)-1H-pyrazolo[3,4-d]pyrimidin-4(5H)-one]
2.3 µM |  | Cc1cccc(-n2ncc3c(=O)n(Cc4ccc(Cl)c(Cl)c4)cnc32)c1C [Compound 31, 5-(3,4-dichlorobenzyl)-1-(2,3-dimethylphenyl)-1H-pyrazolo[3,4-d]pyrimidin-4(5H)-one]
0.5 µM | 30 µM | CNc1nc(-c2ccccc2)[n+](-c2ccccc2)s1 [Compound 5, N-methyl-2,3-diphenyl-1,2,4-thiadiazolium-5-amine]
0.89 µM | ~20 µM | CCc1ccc(S(=O)(=O)Nc2cc(Sc3nc[nH]n3)c(O)c3ccccc23)cc1 [Compound 11, N-(3-(1H-1,2,4-triazol-3-ylthio)-4-hydroxynaphthalen-1-yl)-4-ethylbenzenesulfonamide]
1.47 µM | > 20 µM | CCOc1ccc(S(=O)(=O)Nc2cc(Sc3nc[nH]n3)c(O)c3ccccc23)cc1 [Compound 9, N-(3-(1H-1,2,4-triazol-3-ylthio)-4-hydroxynaphthalen-1-yl)-4-ethoxybenzenesulfonamide]
0.734 µM |  | O=c1c2cnn(C3CCS(=O)(=O)C3)c2ncn1Cc1ccc(Cl)c(Cl)c1 [Compound 1, 5-(3,4-dichlorobenzyl)-1-(S,S,-dioxo-tetrahydrothiophen-3-yl)-1H-pyrazolo[3,4-d]pyrimidin-4(5H)-one]
0.539 µM | 16 µM | Cc1cc(C)c(S(=O)(=O)Nc2cc(Sc3nc[nH]n3)c(O)c3ccccc23)cc1C [Compound 12, N-(3-(1H-1,2,4-triazol-3-ylthio)-4-hydroxynaphthalen-1-yl)-2,4,5-trimethylbenzenesulfonamide]
2 µM |  | Cc1ccccc1-n1ncc2c(=O)n(Cc3ccc(Cl)c(Cl)c3)cnc21 [Compound 30, 5-(3,4-dichlorobenzyl)-1-o-tolyl-1H-pyrazolo[3,4-d]pyrimidin-4(5H)-one]
2 µM | > 50 µM | c1ccc(Nc2nc(-c3ccccc3)[n+](-c3ccccc3)s2)cc1 [Compound 7, N-phenyl-2,3-diphenyl-1,2,4-thiadiazolium-5-amine]
2.7 µM | > 30 µM | Cc1ccc(S(=O)(=O)Nc2cc(Sc3nc[nH]n3)c(O)c3ccccc23)c(C)c1 [Compound 15, N-(3-(1H-1,2,4-triazol-3-ylthio)-4-hydroxynaphthalen-1-yl)-2,4-dimethylbenzenesulfonamide]
0.683 µM | 20 µM | Cc1ccc(C)c(S(=O)(=O)Nc2cc(Sc3nc[nH]n3)c(O)c3ccccc23)c1 [Compound 8, N-(3-(1H-1,2,4-triazol-3-ylthio)-4-hydroxynaphthalen-1-yl)-2,5-dimethylbenzenesulfonamide]
1.2 µM |  | O=c1c2cnn(CCO)c2ncn1Cc1cccc(Cl)c1 [Compound 21, 5-(3-chlorobenzyl)-1-(2-hydroxyethyl)-1H-pyrazolo[3,4-d]pyrimidin-4(5H)-one]
